From patent EP4603105A1, “PHARMACEUTICAL COMPOSITION CONTAINING CYCLIC COMPOUND HAVING SELECTIVE KRAS INHIBITORY EFFECT AGAINST HRAS AND NRAS” (CHUGAI SEIYAKU KABUSHIKI KAISHA, priority 2022, dated 2024)
*1 amine or outer side, *2 acyl side, *3 side chain or, on linkers, in order; H or OH if unused. Where a SMILES comes first, the peptide text is derived from it. Bridges are numbered along the chain shown (N, C = ends). [ ]: non-standard residue; d: D form. The star is where a group is joined. X23 = O=C([C@H](Cc1ccc(C(F)(F)F)cc1)N(CC1CCCC1)[*:1])[*:2]; hPhe(3-Cl-4-CF3) = N[C@@H](CCc1ccc(C(F)(F)F)c(Cl)c1)C(=O)O; NPrPhe(4-CF3) = CCCN[C@@H](Cc1ccc(C(F)(F)F)cc1)C(=O)O; NMePhe(4-Me) = CN[C@@H](Cc1ccc(C)cc1)C(=O)O; NMeGly(cPent) = CN[C@H](C(=O)O)C1CCCC1; Hyp = O=C(O)[C@@H]1C[C@@H](O)CN1; NMeF = CN[C@@H](Cc1ccccc1)C(=O)O; NMeD = CN[C@@H](CC(=O)O)C(=O)O; NMeL = CN[C@@H](CC(C)C)C(=O)O; Morpholide = C1CN(*)CCO1; NMeA = CN[C@@H](C)C(=O)O; Ac5c = NC1(C(=O)O)CCCC1; Aze = O=C(O)[C@@H]1CCN1; Ac4c = NC1(C(=O)O)CCC1; NEtG = CCNCC(=O)O; Sar = CNCC(=O)O

What was measured:
[1] = target: GDP-bound NRAS wild-type protein (Homo sapiens, UniProt P01111); assay: Binding to NRAS by surface plasmon resonance (SPR), KD and KD ratio to KRAS
Summary of the method: (§1)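 Single-cycle kinetics on GDP-loaded biotin-Avi RAS captured to ~100–300 RU; 75 s ascending injections, 100 µL/min, 30°C. HBS pH 7.4 + 10 mM MgCl2/10 µM GDP/4% DMSO. 1:1 fit, KD.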

HRAS wild-type protein = HRAS wild-type protein (Homo sapiens, UniProt P01112); assay: Binding to HRAS by surface plasmon resonance (SPR), KD and KD ratio to KRAS
Summary of the method: as §1

[2] = test system: human lung cancer strain NCI-H441; type: cell-based
Summary of the method: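 Proliferation was scored by […] measured after the reagent was added to cultures kept at 37°C in 5% carbon dioxide.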

[3] = ratio of KD for GDP-bound NRAS wild-type protein to KD for KRAS
[4] = ratio of KD for HRAS wild-type protein to KD for KRAS
[5] = ratio of the KD value with respect to GDP-bound NRAS wild-type protein to the KD value with respect to KRAS
[6] = ratio of the KD value with respect to HRAS wild-type protein to the KD value with respect to KRAS

Chain of GDP-bound NRAS wild-type protein (P01111 whole entry): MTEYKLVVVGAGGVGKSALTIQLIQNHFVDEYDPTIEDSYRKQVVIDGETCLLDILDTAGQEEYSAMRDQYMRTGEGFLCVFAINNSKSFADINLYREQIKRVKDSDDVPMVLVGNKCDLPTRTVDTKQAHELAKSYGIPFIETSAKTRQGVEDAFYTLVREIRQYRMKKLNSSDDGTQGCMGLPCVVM
Chain of HRAS wild-type protein (P01112 whole entry): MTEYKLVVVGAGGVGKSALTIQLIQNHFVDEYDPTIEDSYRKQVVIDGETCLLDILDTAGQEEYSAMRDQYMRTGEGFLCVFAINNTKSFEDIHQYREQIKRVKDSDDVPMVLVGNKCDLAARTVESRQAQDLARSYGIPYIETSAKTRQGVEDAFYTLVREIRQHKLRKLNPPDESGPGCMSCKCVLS

| Structure (SMILES) | IC50 [2] [nM] | NRAS /KRAS [1, 3] | HRAS /KRAS (HRAS wild-type protein; [4]) | NRAS /KRAS [1, 5] | HRAS /KRAS (HRAS wild-type protein; [6]) | NRAS /KRAS ([1]; ratio of KD value for GDP-bound NRAS wild-type protein to KD value for KRAS (SPR)) | HRAS /KRAS (HRAS wild-type protein; ratio of KD value for HRAS wild-type protein to KD value for KRAS (SPR)) |
| --- | --- | --- | --- | --- | --- | --- | --- |
| CCC[C@H]1C(=O)N[C@@H]([C@@H](C)CC)C(=O)N(C2CC2)CC(=O)N(C)[C@H]2C/C=C\CCN(C2=O)[C@@H](Cc2ccc(C(F)(F)F)cc2)C(=O)N(C)CC(=O)N[C@@H](CCc2ccc(C(F)(F)F)c(OC)c2)C(=O)N2C[C@H](OCC)C[C@H]2C(=O)NC2(CC(C)(C)C2)C(=O)N(C)[C@@H](CC2CCC2)C(=O)N(C)[C@H](C(=O)N(C)C)CC(=O)N1C [PP2770] | 137 | A (a compound having 10 or more and less than 20 is denoted as A) | A (a compound having 10 or more and less than 20 is denoted as A) | – | – | – | – |
| CC[C@H](C)[C@@H]1NC(=O)[C@H](CC(C)C)N(C)C(=O)C[C@@H](C(=O)N2CCOCC2)N(C)C(=O)[C@H](C2CCCC2)N(C)C(=O)C2(CCCC2)NC(=O)[C@@H]2CCCN2C(=O)[C@H](CCc2cc(F)c(C(F)(F)F)c(F)c2)NC(=O)CN(C)C(=O)[C@H](Cc2ccc(C(F)(F)F)cc2)N2CCCCC[C@@H](C2=O)N(C)C(=O)CN(CC)C1=O [PP0483] | 525 | – | – | B (a compound having 3 or more and less than 10 is denoted as B) | B (a compound having 3 or more and less than 10 is denoted as B) | – | – |
| CC[C@H](C)[C@@H]1NC(=O)[C@H](CC(C)C)N(C)C(=O)C[C@@H](C(=O)N2CCOCC2)N(C)C(=O)[C@H](C2CCCC2)N(C)C(=O)C2(CCCC2)NC(=O)[C@@H]2CCCN2C(=O)[C@H](CCc2ccc(C(F)(F)F)c(Cl)c2)NC(=O)CN(CC)C(=O)[C@H](Cc2ccc(C)cc2)N(C)C(=O)[C@@H]2CCN2C(=O)[C@H](C)N(C)C1=O [PP0004] ([NMeL]I[NMeA][Aze][NMePhe(4-Me)][NEtG][hPhe(3-Cl-4-CF3)]P[Ac5c][NMeGly(cPent)][NMeD]-Morpholide; lactam N-11) | 52.9 | C (A compound having a KD ratio of 0.1 or more and less than 3 is denoted as C) | C (A compound having a KD ratio of 0.1 or more and less than 3 is denoted as C) | – | – | – | – |
| CCO[C@@H]1C[C@H]2C(=O)NC3(CCC3)C(=O)N(C)[C@@H](C3CCCC3)C(=O)N(C)[C@H](C3CCCCC3)CC(=O)N(C)[C@@H](COC)C(=O)N[C@@H]([C@@H](C)CC)C(=O)N(C)CC(=O)N(C)[C@H]3C/C=C\CCN(C3=O)[C@@H](Cc3ccc(C(F)(F)F)cc3)C(=O)N(C)CC(=O)N[C@@H](CCc3cc(F)c(C(F)(F)F)c(F)c3)C(=O)N2C1 [PP1584] | 66.4 | – | – | – | – | B (a compound having 3 or more and less than 10 is denoted as B) | B (a compound having 3 or more and less than 10 is denoted as B) |

These reach a lower IC50 [2]. Values come first.

| IC50 [2] [nM] | Structure (SMILES) | NRAS /KRAS [1, 3] | HRAS /KRAS (HRAS wild-type protein; [4]) | NRAS /KRAS [1, 5] | HRAS /KRAS (HRAS wild-type protein; [6]) | NRAS /KRAS ([1]; ratio of KD value for GDP-bound NRAS wild-type protein to KD value for KRAS (SPR)) | HRAS /KRAS (HRAS wild-type protein; ratio of KD value for HRAS wild-type protein to KD value for KRAS (SPR)) |
| --- | --- | --- | --- | --- | --- | --- | --- |
| 48.8 | CC[C@H](C)[C@@H]1NC(=O)[C@H](CC(C)C)N(C)C(=O)C[C@@H](C(=O)N2CCOCC2)N(C)C(=O)[C@H](C2CCCC2)N(C)C(=O)C2(CCCC2)NC(=O)[C@@H]2CCCN2C(=O)[C@H](CCc2ccc(C(F)(F)F)c(Cl)c2)NC(=O)CN(C)C(=O)[C@H](Cc2ccc(C(F)(F)F)cc2)N(CC2CCCC2)C(=O)CN(C)C(=O)CN(C)C1=O [PP0124] ([NMeL]I[Sar][Sar][X23][Sar][hPhe(3-Cl-4-CF3)]P[Ac5c][NMeGly(cPent)][NMeD]-Morpholide; lactam N-11) | C (A compound having a KD ratio of 0.1 or more and less than 3 is denoted as C) | C (A compound having a KD ratio of 0.1 or more and less than 3 is denoted as C) | – | – | – | – |
| 7.5 | C=CCN1CC(=O)N(C)[C@H]2C/C=C\CCN(C2=O)[C@@H](Cc2ccc(C)cc2)C(=O)N(C)CC(=O)N[C@@H](CCc2cc(F)c(C(F)(F)F)c(F)c2)C(=O)N2C[C@H](OCC)C[C@H]2C(=O)NC2(CC(C)(C)C2)C(=O)N(C)[C@@H](C2CCCC2)C(=O)N(C)[C@H](C(=O)N(C)C)CC(=O)N(C)[C@@H](CC(C)C)C(=O)N[C@@H]([C@@H](C)CC)C1=O [PP2050] | – | – | A (a compound having 10 or more and less than 20 is denoted as A) | A (a compound having 10 or more and less than 20 is denoted as A) | – | – |
| 20.1 | CC[C@H](C)[C@@H]1NC(=O)[C@H](CC(C)C)N(C)C(=O)C[C@@H](C(=O)N2CCOCC2)N(C)C(=O)[C@H](C2CCCC2)N(C)C(=O)C2(CCCC2)NC(=O)[C@@H]2CCCN2C(=O)[C@H](CCc2ccc(C(F)(F)F)c(Cl)c2)NC(=O)CN(C)C(=O)[C@H](Cc2ccccc2)N(C)C(=O)CN(C)C(=O)CN(C)C1=O [PP0039] ([NMeL]I[Sar][Sar][NMeF][Sar][hPhe(3-Cl-4-CF3)]P[Ac5c][NMeGly(cPent)][NMeD]-Morpholide; lactam N-11) | C (A compound having a KD ratio of 0.1 or more and less than 3 is denoted as C) | C (A compound having a KD ratio of 0.1 or more and less than 3 is denoted as C) | – | – | – | – |
| 0.7 | CCCN1C(=O)CN(C)C(=O)CNC(=O)[C@H]([C@@H](C)CC)NC(=O)[C@H](CC(C)C)N(C)C(=O)C[C@@H](C(=O)N2CCOCC2)N(C)C(=O)[C@H](C2CCCC2)N(C)C(=O)C2(CCC2)NC(=O)[C@@H]2C[C@@H](OCC)CN2C(=O)[C@H](CCc2ccc(C(F)(F)F)c(Cl)c2)NC(=O)CN(C)C(=O)[C@@H]1Cc1ccc(C(F)(F)F)cc1 [PP0397] ([NMeL]IG[Sar][NPrPhe(4-CF3)][Sar][hPhe(3-Cl-4-CF3)][Hyp](Et)[Ac4c][NMeGly(cPent)][NMeD]-Morpholide; lactam N-11) | – | – | C (A compound having a KD ratio of 0.1 or more and less than 3 is denoted as C) | C (A compound having a KD ratio of 0.1 or more and less than 3 is denoted as C) | – | – |
